Test results from publication PMC6576746, “Rational discovery of dual-indication multi-target PDE/Kinase inhibitor for precision anti-cancer therapy using structural systems pharmacology” (PLoS Computational Biology, 2019).

Columns and labels:
Experiment in all cases: biochemical
Design in all cases: DiscoverX KinomeScan competition binding assay across human kinases; per cent of control at 10 and 100 uM
GSK3A = GSK3A (Homo sapiens, UniProt P49840); conditions: competition binding, % of control; read-out: Percent Control (100 uM Levosimendan)
Protocol: (§1) To validate our computational predictions, we employed a competition binding assay to detect the binding of levosimendan to 425 human kinases as well as its dose-response curve to RIOK1. The proprietary KinomeScan assay was performed by DiscoverX (Fremont, California, USA). The tests were performed at 10 μM and 100 μM concentrations of levosimendan, respectively. Assay results were reported as %control, calculated as follows: %control=(TestCompoundSignal−PositiveControlSignal)/(NegativeControlSignal−PositiveControlSignal)×100 KinomeScan assay across 452 human kinases verified our computational prediction (S1 Table). RIOK1 is one of the strongest inhibited kinases by levosimendan. The percentage control of RIOK1 is 15.0 and 0.0 under the treatment of 10 μM and 100 μM of levosimendan, respectively. […] The percentage controls of five kinases: FLT3, MAP2K5, PIP5K1A, GAK, and KIT are less than 30.0 under the treatment of both 10 μM and 100 μM of levosimendan. Both FLT3 and KIT are tyrosine protein kinases. Their inhibitors have recently been approved for the treatment of Acute Myeloid Leukemia and other types of cancers, but a combination therapy is needed to overcome rapidly emerged drug resistance, thus improve patients’ drug responses. Other kinases inhibited by levosimendan belong to serine/threonine protein kinase family (RIOK1, RIOK3, GAK, and MAP2K5) and lipid kinase family (PIP5K1A). […] As a result, levosimendan may modulate different cancer pathways from those by the tyrosine protein kinase inhibitors, and it could be a novel lead compound for a new anti-cancer therapy to overcome drug resistance of existing drugs or to target different types of cancers through polypharmacology or drug combination.

IKK-epsilon = target: T1, IKK-epsilon (Homo sapiens, UniProt Q14164); conditions: competition binding, % of control; read-out: Percent Control (100 uM Levosimendan)
T1 construct: gene IKBKE
T1 sequence (Q14164 whole entry): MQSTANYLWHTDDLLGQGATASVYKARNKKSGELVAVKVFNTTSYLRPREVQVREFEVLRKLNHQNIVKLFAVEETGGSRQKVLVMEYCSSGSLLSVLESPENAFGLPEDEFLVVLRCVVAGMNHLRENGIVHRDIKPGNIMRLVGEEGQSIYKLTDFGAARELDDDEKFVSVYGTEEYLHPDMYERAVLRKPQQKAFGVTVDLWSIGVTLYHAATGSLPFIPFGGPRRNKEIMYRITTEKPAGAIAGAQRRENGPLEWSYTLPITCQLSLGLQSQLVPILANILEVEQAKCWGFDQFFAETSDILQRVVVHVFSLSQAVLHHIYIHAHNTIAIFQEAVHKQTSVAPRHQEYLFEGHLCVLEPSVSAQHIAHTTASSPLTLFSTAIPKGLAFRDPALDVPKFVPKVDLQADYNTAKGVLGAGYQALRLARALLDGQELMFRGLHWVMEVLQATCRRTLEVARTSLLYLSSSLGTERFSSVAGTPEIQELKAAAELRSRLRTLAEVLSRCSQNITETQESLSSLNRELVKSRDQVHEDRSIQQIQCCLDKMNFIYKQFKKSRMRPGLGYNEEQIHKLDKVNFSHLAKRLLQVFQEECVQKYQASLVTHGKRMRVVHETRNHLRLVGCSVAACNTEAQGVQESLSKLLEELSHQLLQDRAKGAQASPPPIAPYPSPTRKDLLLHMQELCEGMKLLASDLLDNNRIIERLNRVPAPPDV
Protocol: as §1

FGFR4 = FGFR4 (Homo sapiens, UniProt P22455); conditions: competition binding, % of control; read-out: Percent Control (100 uM Levosimendan)
Sequence of FGFR4 (P22455 whole entry): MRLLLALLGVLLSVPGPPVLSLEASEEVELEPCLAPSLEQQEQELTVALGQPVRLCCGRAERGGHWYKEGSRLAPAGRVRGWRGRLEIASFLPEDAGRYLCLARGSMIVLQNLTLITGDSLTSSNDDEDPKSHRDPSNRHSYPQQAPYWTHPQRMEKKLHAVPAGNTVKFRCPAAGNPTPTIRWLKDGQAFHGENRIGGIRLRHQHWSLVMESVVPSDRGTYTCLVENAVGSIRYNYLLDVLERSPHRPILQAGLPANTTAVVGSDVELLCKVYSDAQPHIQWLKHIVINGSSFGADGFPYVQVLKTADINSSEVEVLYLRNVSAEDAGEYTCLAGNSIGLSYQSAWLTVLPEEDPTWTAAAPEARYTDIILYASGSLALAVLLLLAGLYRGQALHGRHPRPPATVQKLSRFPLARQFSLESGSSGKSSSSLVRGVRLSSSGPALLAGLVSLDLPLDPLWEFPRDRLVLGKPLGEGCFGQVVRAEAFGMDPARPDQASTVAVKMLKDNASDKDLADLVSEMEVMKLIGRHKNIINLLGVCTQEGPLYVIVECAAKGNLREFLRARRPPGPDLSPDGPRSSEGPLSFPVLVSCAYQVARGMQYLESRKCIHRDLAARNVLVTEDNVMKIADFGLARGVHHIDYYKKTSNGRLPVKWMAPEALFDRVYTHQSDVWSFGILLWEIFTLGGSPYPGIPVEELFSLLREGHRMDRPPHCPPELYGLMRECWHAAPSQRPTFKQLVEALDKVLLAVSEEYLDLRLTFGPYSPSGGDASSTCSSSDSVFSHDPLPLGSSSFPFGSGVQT
Protocol: as §1

FGFR2 = FGFR2 (Homo sapiens, UniProt P21802); conditions: competition binding, % of control; read-out: Percent Control (100 uM Levosimendan)
Sequence of FGFR2 (P21802 whole entry): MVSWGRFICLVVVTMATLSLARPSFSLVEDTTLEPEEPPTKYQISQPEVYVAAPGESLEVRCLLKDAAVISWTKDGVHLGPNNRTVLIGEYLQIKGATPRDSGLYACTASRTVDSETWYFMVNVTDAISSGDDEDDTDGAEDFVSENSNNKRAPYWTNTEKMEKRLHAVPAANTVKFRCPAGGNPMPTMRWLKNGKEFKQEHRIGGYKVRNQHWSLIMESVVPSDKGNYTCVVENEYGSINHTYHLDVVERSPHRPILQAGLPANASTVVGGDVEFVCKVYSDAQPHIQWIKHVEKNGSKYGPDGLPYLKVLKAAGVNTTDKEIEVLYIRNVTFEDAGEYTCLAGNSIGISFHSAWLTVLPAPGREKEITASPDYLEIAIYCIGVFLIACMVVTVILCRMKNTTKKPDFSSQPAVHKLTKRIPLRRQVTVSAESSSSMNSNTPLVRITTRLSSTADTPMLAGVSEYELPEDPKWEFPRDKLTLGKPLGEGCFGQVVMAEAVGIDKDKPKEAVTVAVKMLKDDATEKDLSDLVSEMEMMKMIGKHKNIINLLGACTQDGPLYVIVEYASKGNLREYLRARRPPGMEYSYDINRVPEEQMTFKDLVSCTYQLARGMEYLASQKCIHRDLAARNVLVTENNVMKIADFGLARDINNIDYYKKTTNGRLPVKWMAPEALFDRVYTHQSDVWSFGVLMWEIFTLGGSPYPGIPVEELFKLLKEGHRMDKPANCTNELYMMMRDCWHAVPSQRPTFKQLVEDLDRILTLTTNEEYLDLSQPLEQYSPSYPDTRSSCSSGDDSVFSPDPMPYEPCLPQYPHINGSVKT
Protocol: as §1

CSNK1A1L = CSNK1A1L (Homo sapiens, UniProt Q8N752); conditions: competition binding, % of control; read-out: Percent Control (100 uM Levosimendan)
Protocol: as §1

DYRK1A = DYRK1A (Homo sapiens, UniProt Q13627); conditions: competition binding, % of control; read-out: Percent Control (100 uM Levosimendan)
Protocol: as §1

ROS1 = ROS1 (Homo sapiens, UniProt P08922); conditions: competition binding, % of control; read-out: Percent Control (100 uM Levosimendan)
Protocol: as §1

GSK3B = GSK3B (Homo sapiens, UniProt P49841); conditions: competition binding, % of control; read-out: Percent Control (100 uM Levosimendan)
Sequence of GSK3B (P49841 whole entry): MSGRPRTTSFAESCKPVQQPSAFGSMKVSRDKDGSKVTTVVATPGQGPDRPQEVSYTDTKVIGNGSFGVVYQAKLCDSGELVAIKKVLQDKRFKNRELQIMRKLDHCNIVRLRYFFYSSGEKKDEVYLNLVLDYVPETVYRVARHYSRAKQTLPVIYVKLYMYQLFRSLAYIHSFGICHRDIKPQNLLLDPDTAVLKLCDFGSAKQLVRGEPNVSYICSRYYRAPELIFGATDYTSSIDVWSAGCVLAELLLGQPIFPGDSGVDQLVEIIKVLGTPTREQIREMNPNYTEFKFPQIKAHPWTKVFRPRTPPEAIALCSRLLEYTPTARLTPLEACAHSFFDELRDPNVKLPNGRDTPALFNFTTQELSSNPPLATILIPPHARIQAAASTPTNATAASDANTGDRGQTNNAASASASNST
Protocol: as §1

CHEK2 = CHEK2 (Homo sapiens, UniProt O96017); conditions: competition binding, % of control
Sequence of CHEK2 (O96017 whole entry): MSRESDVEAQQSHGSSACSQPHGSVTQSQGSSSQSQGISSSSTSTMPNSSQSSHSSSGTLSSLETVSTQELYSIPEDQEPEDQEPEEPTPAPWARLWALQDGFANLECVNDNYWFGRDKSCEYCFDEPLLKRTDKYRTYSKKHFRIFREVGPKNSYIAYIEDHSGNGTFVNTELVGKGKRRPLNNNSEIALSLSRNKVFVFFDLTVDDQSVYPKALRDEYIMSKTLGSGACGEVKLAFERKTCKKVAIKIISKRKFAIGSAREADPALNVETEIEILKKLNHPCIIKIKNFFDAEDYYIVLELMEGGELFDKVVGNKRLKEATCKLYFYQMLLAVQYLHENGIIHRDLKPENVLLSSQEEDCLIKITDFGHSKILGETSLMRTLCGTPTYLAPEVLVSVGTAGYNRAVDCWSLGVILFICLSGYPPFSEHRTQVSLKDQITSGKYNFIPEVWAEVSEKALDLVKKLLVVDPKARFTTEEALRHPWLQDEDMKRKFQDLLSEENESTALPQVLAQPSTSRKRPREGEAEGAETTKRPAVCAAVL
Protocol: as §1

CSF1R = CSF1R (Homo sapiens, UniProt P07333); conditions: competition binding, % of control
Sequence of CSF1R (P07333 whole entry): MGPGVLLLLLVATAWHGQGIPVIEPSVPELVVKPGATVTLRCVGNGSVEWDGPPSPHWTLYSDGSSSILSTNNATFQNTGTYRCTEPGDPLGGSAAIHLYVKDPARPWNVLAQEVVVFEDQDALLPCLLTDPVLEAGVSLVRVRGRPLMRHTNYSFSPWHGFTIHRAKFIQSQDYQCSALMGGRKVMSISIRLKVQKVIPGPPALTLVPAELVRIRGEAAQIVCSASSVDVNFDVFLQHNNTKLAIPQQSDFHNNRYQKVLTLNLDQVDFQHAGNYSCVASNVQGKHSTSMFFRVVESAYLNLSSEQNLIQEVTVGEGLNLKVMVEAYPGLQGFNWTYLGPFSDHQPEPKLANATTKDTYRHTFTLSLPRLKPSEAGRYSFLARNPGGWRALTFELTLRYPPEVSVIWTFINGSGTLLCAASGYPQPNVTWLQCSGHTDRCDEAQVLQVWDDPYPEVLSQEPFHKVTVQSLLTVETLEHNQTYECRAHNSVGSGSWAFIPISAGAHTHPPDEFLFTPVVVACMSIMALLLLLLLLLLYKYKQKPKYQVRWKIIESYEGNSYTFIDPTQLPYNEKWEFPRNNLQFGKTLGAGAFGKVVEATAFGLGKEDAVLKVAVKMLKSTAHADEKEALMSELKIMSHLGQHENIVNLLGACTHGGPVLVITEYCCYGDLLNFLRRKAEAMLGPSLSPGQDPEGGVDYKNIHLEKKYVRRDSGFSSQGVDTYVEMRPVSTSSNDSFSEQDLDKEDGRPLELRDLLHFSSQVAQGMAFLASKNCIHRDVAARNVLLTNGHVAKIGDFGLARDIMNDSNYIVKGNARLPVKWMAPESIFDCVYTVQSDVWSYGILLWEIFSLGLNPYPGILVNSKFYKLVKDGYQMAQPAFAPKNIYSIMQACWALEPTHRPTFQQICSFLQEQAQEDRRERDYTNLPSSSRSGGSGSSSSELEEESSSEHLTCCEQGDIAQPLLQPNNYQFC
Protocol: as §1

DCAMKL1 = target: T2, DCAMKL1 (Homo sapiens, UniProt O15075); conditions: competition binding, % of control; read-out: Percent Control (100 uM Levosimendan)
T2 construct: gene DCLK1
Protocol: as §1

MEK3 = target: T3, MEK3 (Homo sapiens, UniProt P46734); conditions: competition binding, % of control; read-out: Percent Control (100 uM Levosimendan)
T3 construct: gene MAP2K3
Protocol: as §1

PRKG2 = PRKG2 (Homo sapiens, UniProt Q13237); conditions: competition binding, % of control; read-out: Percent Control (100 uM Levosimendan)
Protocol: as §1

NDR2 = target: T4, NDR2 (Homo sapiens, UniProt Q9Y2H1); conditions: competition binding, % of control; read-out: Percent Control (100 uM Levosimendan)
T4 construct: gene STK38L
Protocol: as §1

RIOK1 = RIOK1 (Homo sapiens, UniProt Q9BRS2); conditions: competition binding, % of control
Sequence of RIOK1 (Q9BRS2 whole entry): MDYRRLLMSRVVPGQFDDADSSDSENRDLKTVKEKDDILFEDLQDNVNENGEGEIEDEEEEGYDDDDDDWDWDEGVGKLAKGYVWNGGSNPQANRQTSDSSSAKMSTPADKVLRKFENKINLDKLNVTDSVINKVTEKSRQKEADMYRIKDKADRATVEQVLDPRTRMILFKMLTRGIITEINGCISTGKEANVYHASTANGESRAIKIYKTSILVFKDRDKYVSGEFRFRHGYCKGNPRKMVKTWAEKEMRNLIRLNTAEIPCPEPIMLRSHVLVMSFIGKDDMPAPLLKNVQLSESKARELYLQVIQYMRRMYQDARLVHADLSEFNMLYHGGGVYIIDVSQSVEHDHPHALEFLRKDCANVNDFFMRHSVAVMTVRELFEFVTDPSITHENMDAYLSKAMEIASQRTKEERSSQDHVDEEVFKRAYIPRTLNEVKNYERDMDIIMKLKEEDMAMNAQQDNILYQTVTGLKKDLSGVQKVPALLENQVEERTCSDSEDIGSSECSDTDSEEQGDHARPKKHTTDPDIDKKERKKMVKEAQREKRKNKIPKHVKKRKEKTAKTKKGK
Protocol: as §1

PRKD1 = PRKD1 (Homo sapiens, UniProt Q15139); conditions: competition binding, % of control; read-out: Percent Control (100 uM Levosimendan)
Protocol: as §1

MYO3B = MYO3B (Homo sapiens, UniProt Q8WXR4); conditions: competition binding, % of control; read-out: Percent Control (100 uM Levosimendan)
Protocol: as §1

PAK1 = PAK1 (Homo sapiens, UniProt Q13153); conditions: competition binding, % of control; read-out: Percent Control (100 uM Levosimendan)
Protocol: as §1

[1] = read-out: Percent Control (10 uM Levosimendan)
[2] = read-out: Percent Control (100 uM Levosimendan)

Which remaining binding at 100 µM (GSK3A) does the source give for `C[C@@H]1CC(=O)NN=C1c1ccc(NN=C(C#N)C#N)cc1` [levosimendan] here?
The remaining binding at 100 µM was 100%.

And the remaining binding at 100 µM (IKK-epsilon)?
The remaining binding at 100 µM was 93%.

And the remaining binding at 100 µM (FGFR4)?
The remaining binding at 100 µM was 92%.

And the remaining binding at 100 µM (FGFR2)?
The remaining binding at 100 µM was 61%.

What about the remaining binding at 100 µM (CSNK1A1L) of the same molecule?
Its remaining binding at 100 µM is 55%.

What about the remaining binding at 100 µM (DYRK1A) of the same molecule?
The remaining binding at 100 µM was 89%.

What about the remaining binding at 100 µM (ROS1) of the same molecule?
Its remaining binding at 100 µM is 62%.

And the remaining binding at 100 µM (GSK3B)?
Its remaining binding at 100 µM is 100%.

And the remaining binding at 10 µM (CHEK2; [1])?
The remaining binding at 10 µM was 41%.

What about the remaining binding at 100 µM (CHEK2; [2]) of the same molecule?
Its remaining binding at 100 µM is 0.65%.

What about the remaining binding at 10 µM (CSF1R; [1]) of the same molecule?
Its remaining binding at 10 µM is 78%.

And the remaining binding at 100 µM (CSF1R; [2])?
The remaining binding at 100 µM was 40%.

What about the remaining binding at 100 µM (DCAMKL1) of the same molecule?
Its remaining binding at 100 µM is 67%.

And the remaining binding at 100 µM (MEK3)?
The remaining binding at 100 µM was 57%.

What about the remaining binding at 100 µM (PRKG2) of the same molecule?
The remaining binding at 100 µM was 98%.

And the remaining binding at 100 µM (NDR2)?
Its remaining binding at 100 µM is 96%.

And the remaining binding at 10 µM (RIOK1; [1])?
Its remaining binding at 10 µM is 15%.

What about the remaining binding at 100 µM (RIOK1; [2]) of the same molecule?
Its remaining binding at 100 µM is 0%.

What about the remaining binding at 100 µM (PRKD1) of the same molecule?
The remaining binding at 100 µM was 96%.

What about the remaining binding at 100 µM (MYO3B) of the same molecule?
The remaining binding at 100 µM was 100%.

And the remaining binding at 100 µM (PAK1)?
The remaining binding at 100 µM was 73%.
